Oligonucleotides are written 5' to 3', each unit as a sugar letter and its base; * is a phosphorothioate linkage, no mark a phosphodiester; rarer units and linkages stand in square brackets, end groups in braces. Plain capitals give the bases only. d = 2'-deoxy (DNA)
Assays:
[1] = test system: outer membrane of Salmonella; assay: Outer membrane permeabilization (NPN fluorescence); format: cell-based, Salmonella enterica serovar Typhimurium strain SL1344; parameters: key to Outer-membrane permeation: -: Effect strength is represented by additional (+) signs.; Effect strength is represented by additional (+) signs.; ++: Effect strength is represented by additional (+) signs.; +++: Effect strength is represented by additional (+) signs; settings: for Outer-membrane permeation: summary grade, ASO conjugated to the carrier peptide; for Outer membrane permeabilization, NPN fluorescence (in words): test compounds 10 µM final, added at 14 min, NPN 10 µM, 5 mM HEPES, 5 mM glucose pH 7.2, CTAB and Polymyxin B positive controls
Experimental: The experiments were performed by modifying previously published protocols ([48]–[50]). Salmonella (WT SL1344, JVS-1574) were grown overnight in 4 ml MHB medium at 37 °C (with shaking at 220 rpm). Then the culture was diluted 1:100 and grown until OD 0.5 (∼2×10^8 cfu/mL). This culture was harvested and washed two times with 5mM HEPES and further diluted to OD 0.2 in 5 mM HEPES supplemented with 5 mM Glucose (pH 7.2). These cells were then incubated with N-phenylnaphthylamine (NPN) (Sigma, USA) at a final concentration of 10 µM. 190 µl of NPN treated cells were transferred into 96-well back plates with transparent bottom and fluorescence (excitation = 350 nm, emission = 420 nm) was recorded for 60 min (reading was performed every minute) using a Synergy H1 plate reader (Biotek). On the fourteenth minute, 10 µl of the test compounds (10 µM final concentration) was added into the wells. CTAB (Sigma, USA) 200 µM or Polymyxin B (Sigma, USA) 10 µg/ml (final concentration of 0.5 µg/ml) were used as positive controls, while water was used as negative control. The fluorescence of the wells were monitored using the same settings as above. The experiment was performed three times and Figure 10 is based on a single representative experiment.

[2] = test system: acpP mRNA; assay: RNA-seq, target mRNA depletion; format: cell-based, Salmonella enterica serovar Typhimurium strain SL1344; parameters: key to acpP depletion (RNA-seq): -: Effect strength is represented by additional (+) signs.; Effect strength is represented by additional (+) signs.; ++: Effect strength is represented by additional (+) signs.; +++: Effect strength is represented by additional (+) signs; settings: for acpP depletion (RNA-seq): summary grade, ASO conjugated to the carrier peptide; for acpP mRNA depletion (in words): 5 µM KFF-ASO conjugate, 15 min, ~10^6 cfu/ml
Experimental: RNA isolation was performed using previously published protocols ([30],[31]). Bacterial overnight cultures were diluted 1:100 in fresh MHB and grown to OD600 0.5. The cultures were diluted to approximately 10^6 cfu/ml in non-cation-adjusted MHB. Afterwards, an aliquot of the bacterial solution was transferred into 5 ml low-binding tubes (LABsolute) containing the ASOs solution (adjusted such that the final concentration was 5 μM for all tested compounds). As a negative control, cells were treated with the respective volume of sterile nuclease-free water, which was used as solvent for the ASOs. After incubating the samples for 15 min at 37 °C, RNAprotect Bacteria (Qiagen) was added according to the manufacturer’s instructions. Following a 10-min incubation, cells were pelleted at 4 °C and 21,100 × g for 20 min. The supernatant was discarded and pellets were either directly used or stored at –20°C (<1 day) for subsequent bacterial RNA isolation.
Total RNA was purified from bacterial pellets using the miRNeasy Mini kit (Qiagen) according to protocol #3 described in ([30]). Briefly, cells were resuspended in 0.5 mg/ml lysozyme (Roth) in TE buffer (pH 8.0) and incubated for 5 min. Afterwards, RLT buffer supplemented with β-mercaptoethanol, and ethanol were added according to the manufacturer’s instructions. After sample loading, column wash-steps were performed according to the manual. RNA concentration was measured with a NanoDrop spectrophotometer.
For transcriptomic analyses, RNA samples were processed and subjected to RNA-seq at Core Unit SysMed (University of Würzburg, Germany). Sequencing was run using a previously published protocol ([31]). Briefly, RNA quality was checked using a 2100 Bioanalyzer with the RNA 6000 Pico/ Nano kit (Agilent Technologies). RNA samples were DNase-treated using DNAse I kit (Thermo Fisher), followed by ribosomal RNA depletion using Lexogen’s RiboCop META rRNA Depletion Kit protocol according to manufacturer’s recommendation. Subsequently, cDNA libraries suitable for sequencing were prepared using CORALL Total RNA-Seq Library Prep protocol (Lexogen) according to manufacturer’s recommendation with 14–25 PCR cycles. Library quality was checked using a 2100 Bioanalyzer with the DNA High Sensitivity kit (Agilent Technologies). Sequencing of pooled libraries, spiked with 5% PhiX control library, was performed at 10 million reads/sample in single-end mode with 75 nt read length on the NextSeq 500 platform (Illumina) using High output sequencing kits. Demultiplexed FASTQ files were generated with bcl2fastq2 v2.20.0.422 (Illumina).
RNA-seq data analysis was performed similarly to our previous analysis of PNA activity in S. enterica ([30]). Briefly, adapters and low-quality bases (Phred quality score <10) of raw reads were trimmed using BBduk. Then the RNA-seq reads were mapped to the S. enterica serovar Typhimurium reference genome and the three plasmids pSLT SL1344, pCol1B9 SL1344, and pRSF1010 SL1344 ([37]) using BBMap (v38.18) and genomic features were assigned using the featureCounts command of the Subread (2.0.1) package ([38]). For the coverage plots in Figure 8, the bamCoverage (v3.3.2) method of the deepTools platform was applied ([39]).
Downstream RNA-seq analysis was performed using packages from the R/Bioconductor project. Raw read counts of all conditions were imported into edgeR (v3.34.1) ([40]) and analysed for differential expression. To filter low-count reads, features with less than 1.38 counts per million (CPM) in at least 5 libraries were ignored for further analysis. The cutoff of 1.38 CPM was set to 10/L, with L being the minimum library size across all samples in millions, as described in ([41]). Libraries were normalized using edgeR’s trimmed mean of M values (TMM) normalization ([40]). The glmFit function was applied to estimate quasi-likelihood dispersions and contrasts for differential expression analysis were tested using the glmQLTest function. […]

Substance	Outer-membrane permeation [1]	acpP depletion (RNA-seq) [2]	acpP mRNA depletion (in words) [2]	Outer membrane permeabilization, NPN fluorescence (in words) [1]
DNA-PTO: 10mer phosphorothioate-modified DNA antisense oligomer, sequence CTCATACTCT, targeting acpP (antisense dC*dT*dC*dA*dT*dA*dC*dT*dC*dT)	-	-		
LNA: 10mer 2'-4'-locked RNA antisense oligomer, sequence CTCATACTCT, targeting acpP (all LNA, backbone and methylation of C not given here)	-	-	slight effect	
PMO: 10mer phosphorodiamidate morpholino antisense oligomer, sequence CTCATACTCT, targeting acpP (all phosphorodiamidate morpholino (PMO))	++			this ability is retained
PNA: 10mer peptide nucleic acid antisense oligomer, sequence CTCATACTCT, targeting acpP (all peptide nucleic acid (PNA))	++		reduced the levels of acpP mRNA	this ability is retained
RNA-F: 10mer 2'-fluorinated RNA antisense oligomer, sequence CTCATACTCT, targeting acpP (all 2'-fluoro, backbone and T or U not given here)	-	-		
RNA-MOE: 10mer 2'-methoxyethylated RNA antisense oligomer, sequence CTCATACTCT, targeting acpP (all 2'-MOE, backbone and methylation of C not given here)	-	-		
RNA-OMe: 10mer 2'-methylated RNA antisense oligomer, sequence CTCATACTCT, targeting acpP (all 2'-O-methyl, backbone and T or U not given here)	-	-		
